Experiments:
BT474 xenograft tumors = format: in vivo, athymic Nu/J nude mice; details: without topotecan administration; tumor burden and excised tumor weight
Experimental: (§1) FIG. 5. CUL4B inactivation sensitized BT474 xenograft tumors to topotecan. Stable TGL-BT474 cells (BT474 cells stably expressing GFP-luciferase reporter) were established by retroviral transduction and FACS sorting. The resulting TGL-BT474 cells were infected with recombinant lentiviruses expressing non-targeting shCtrl, shCUL4A or shCUL4B, followed by selection of infected cells with 4 μg/ml puromycine for one week. A) Knockdown of endogenous CUL4A and 4B were verified by immunoblotting. B, C) 1×10^7 of control, CUL4A^k/d, or CUL4B^k/d TGL-BT474 cells were injected subcutaneously in the right flank of each athymic Nu/J nude mice, treated (i.p.) with toptoecan at a dose of 5 mg/g on every 4th day, and tumor burden was measure by bioluminescent imaging. Statistical significance in tumor burden between control and CUL4A^k/d or CUL4B^k/d xenograph are assessed by a two-tailed unpaired student t-test (***: p<0.001). D) Growth rate of control, CUL4A^k/d and CUL4B^k/d BT474 cells in vitro. The same number of control, CUL4A^k/d and CUL4B^k/d BT474 cells were seeded to 96-well plates and cell proliferation was measured using the XTT Cell Proliferation Assay Kit. The data represent the mean value of fold change of cells. Bars indicate the S.E. of six independent experiments. Statistical significance in cellular rate between control cells and CUL4A^k/d or CUL4B^k/d cells are assessed by student's t-test. E-F) Growth rate of control, CUL4A^k/d and CUL4B^k/d TGL-BT474 xenograft in vivo. 1×10^7 of control, CUL4A^k/d or CUL4B^k/d TGL-BT474 cells were injected subcutaneously in the right flank of each mouse of athymic Nu/J nude mice, and tumor burden was measured by bioluminescent imaging (E). On the 22nd day, tumors were collected, and the weight of exercised tumors was measured after mice were sacrificed (F).
The effect of CUL4B knockdown on an organism's response to CPT treatment was tested in vivo by examining the sensitivity of BT474-CUL4B^k/d, BT474-CUL4A^k/d and control BT474 xenograft tumors to topotecan treatment. Topotecan, (S)-10-[(dimethylamino)methyl]-4-ethyl-4,9-dihydroxy-1H-pyrano[3′,4′:6,7]indolizino[1,2-b]quinoline-3,14(4H,12H)-dione monohydrochloride, is an FDA-approved Top1-directed chemotherapy for the treatment of ovarian, cervical and small cell lung cancer, under the trade name Hycamtin™. Nude mice bearing BT474 xenografts on dorsal skin were treated with topotecan every four (4) days for a period of 44 days. Prior to topotecan administration, the size of the xenograft tumors were identical (FIG. 5). Topotecan was then administered via intraperitoneal injection, and tumor mass was monitors by bioluminescent imaging in four day intervals. […] To rule out the possibility that the growth rate of xenografts were altered during the CUL4B inactivation process (treatment with shRNA) the tumor mass of the three xenograft groups were measured in the absence of topotecan treatment and the weight of the exercised xenograft tumors were analyzed.
Six week old Female athymic Nu/J nude mice were purchased from Jackson Labs. Mice were housed in laminar air-flow cabinets under specific pathogen-free conditions. Nude mice were inoculated with 0.36 mg 60-day-release 17-b-estradiol pellets (Innovative Research) 24 to 48 hours before implantation of BT-474 cells. 1×10^7 BT-474 cells in 50 ul DMEM medium and 300 ul diluted BD Matrigel™ Basement Membrane Matrix (BD Bioscience, Matrix: PBS is 2:1) were injected subcutaneously in the right flank of each mouse. Tumors were detected once every four days by an IVIS Imaging System (Caliper Life Sciences). When tumors were available to be detected, mice were initially treated with topotecan. Topotecan was administered intraperitoneally on every fourth day from the initiation of therapy at doses of 5 mg/g.
The IVIS Imaging System (Caliper life sciences) was used for bioluminescent image acquisition and analysis. […]

BT474 cells = experiment: XTT Cell Proliferation Assay, growth rate of BT474 cells in vitro; format: cell-based, Human; details: knockdown cells vs control, no drug
Experimental: as §1, with “B, C) 1×10^7 of control, CUL4A^k/d, or CUL4B^k/d TGL-BT474 cells were injected subcutaneously in the right flank of each athymic Nu/J nude mice, treated (i.p.) with toptoecan at a dose of 5 mg/g on every 4th day, and tumor burden was measure by bioluminescent imaging.” left out, “D) Growth rate of control, CUL4A^k/d and CUL4B^k/d BT474 cells in vitro.” left out, “The data represent the mean value of fold change of cells. Bars indicate the S.E. of six independent experiments.” left out, “E-F) Growth rate of control, CUL4A^k/d and CUL4B^k/d TGL-BT474 xenograft in vivo.” left out

[1] = system: γH2AX foci in BT474 cells; experiment: Immunofluorescent detection of γH2AX foci; format: cell-based, Human; details: 2 μM CPT 2 hours, 1 hour repair
Experimental: FIG. 3. CUL4B^k/d BT474 cells are susceptible to CPT-induced DNA damage. A) Persistent DNA damage in CPT-treated BT474-CUL4B^k/d cells. Control or CUL4B^k/d BT474 cells were treated with 2 μM of CPT for the indicated time periods, replenished with CPT-free fresh medium, incubated at 37° C. for 1 hour to repair DNA damage, and subjected to immunoblotting with the anti-γH2AX antibody to determine the extent of DNA damage. B) Immunofluorescent detection of γH2AX foci in control or CUL4B^k/d BT474 cells following CPT treatment. BT474 cells were infected with lentiviral control shRNA (shCtrl) or shCUL4B, treated with 2 μM CPT for 2 hours and replenished with CPT-free fresh medium, incubated at 37° C. for 1 hour to repair DNA damage. γH2AX foci were detected by immunofluorescent assay with the rabbit anti-γH2AX antibody and goat anti-rabbit secondary antibody conjugated with cy3 (red). Nuclei were stained with DAPI (blue). C, D) Percentage of γH2AX-positive cells and number of persistent γH2AX foci in a total of 300 γH2AX-positive cells. All values were presented as mean±S.E. Statistical significance was assessed by a two-tailed unpaired Student t-test (***: p<0.001).
Cells were initially grown on chamber slides. […] After PBS washes, cells were mounted with FluroSave™ Reagent (Calbiochem), and visualized under the fluorescence microscope, and images were captured via camera.

T47D cells = experiment: XTT assay for cytotoxic response to camptothecin, T47D; format: cell-based, Human

Row | Molecule | Growth rate of xenografts vs control (BT474 xenograft tumors) | Growth rate of cultured BT474 cells in vitro (BT474 cells) | Cells with accumulation of γH2AX foci ([1]; CPT-treated CUL4B k/d BT474 cells) | Cells with accumulation of γH2AX foci ([1]; CPT-treated control BT474 cells) | Survival rate of CPT-treated cells (T47D cells; T47D cells with knockdown of CUL4A) | Cytotoxic killing by CPT (cell survival) (T47D cells; T47D cells with knockdown of CUL4B, CPT three days)
1 | shCUL4B: lentiviral shRNA CUL4B sequence purchased from Sigma Aldrich, reduces CUL4B expression (CCGGGCAGAATTTAAAGAGGGTAAACTCGAGTTTACCCTCTTTAAATTCTGCTTTTT) | no significant difference | no effect | – | – | – | –
2 | CC[C@@]1(O)C(=O)OCc2c1cc1n(c2=O)Cc2cc3ccccc3nc2-1 [CPT, (S)-4-ethyl-4-hydroxy-1H-pyrano[3′,4′:6,7]indolizino[1,2-b]quinoline-3,14-(4H, 12H)-dione] | – | – | 50% | 20% | no effect | sensitized

From US10106853B2, “CUL4B as predictive biomarker for cancer treatment” (CORNELL UNIVERSITY, priority 2012, dated 2018)
